Measurements reported in patent US6713633B1, “Compounds capable of cleaving double-stranded DNA and method of utilization of the same” (Japan Science and Technology Corporation, priority 1999, dated 2004).
pIC50: −log10 of the molar value.

How the values were obtained:
[1] = system: HeLaS3 cells; experiment: Growth Inhibitory Test on HeLaS3 Cells; format: cell-based; details: Homo sapiens, HeLa S3, 72 hours incubation, cell counts
Description: Cytotoxic activity of the compound of the present invention based on the properties described hereinbefore was examined. Cytotoxic activities of PyPyLDu86 and ImPyLDu86 of the present invention and known anticancer agent duocarmycin on HeLaS3 cells (uterocervical squamous cell carcinoma cells) were tested.
Suspension 0.75 ml of HeLaS3 cells, 2.67×10^4 cells/ml, in MEM medium containing 10% fetal bovine serum and 2 mM glutamine, was dispensed into each well in 24 cell culture plate. After incubation in the CO2-incubator at 37° C. for overnight, 0.25 ml portions of each test compound shown in Table 1, which was appropriately diluted with medium, was added into each well.
After cells were incubated for 72 hours in the CO2-incubator, the culture supernatant was removed, and cells were dispersed using trypsin-ethylenediaminetetraacetic acid (EDTA) and collected. Cell counts were counted by cell counter, and cell counts without treatment and cell counts treated with known concentration of test compound were compared to calculate the concentration of test compound which inhibits 50% of cell growth (IC50).

[2] = system: 5′-end texas red-modified 450 bp DNA fragments pUC18 F780*-1229 and pUC18 R1459*-1908; experiment: Alkylation of 450 bp DNA fragments (thermally induced strand cleavage, high-resolution gel electrophoresis); format: biochemical
Description: Reactivities of the thus synthesized PyPyLDu86 and ImPyLDu86 with DNA were investigated.
The left electrophoresis pattern is a result of the upper strand of the double-strand DNA, and the right electrophoresis pattern is a result of the lower strand of the double-strand DNA. […] No compounds have been known to occur such the cleavage, and in this sense, the compound of the present invention can be said as an artificial restriction enzyme.
(1) Preparation of 5′-texas red-end-modified 450 bp DNA fragment
The 5′-end texas red-modified 450 bp DNA fragments pUC18 F780*-1229 and pUC18 R1459*-1908 (these are complementary) were prepared by the PCR method using 5′-end texas red-modified 18mers as primers and purified by filtration using Suprec-02. The concentration was determined by ethidium bromide staining. The asterisk (*) indicates texas red modification site, and numerals indicates nucleotide numbering from the replication origin.
(2) High-resolution gel electrophoresis
A standard reaction mixture containing 5′-end texas red-labeled DNA fragment 60 nM, DMF 5% (v/v) and various concentrations of drugs in total 10 μl of sodium phosphate buffer (pH 7.0) 12.5 mM was added into microcentrifugal tube (Eppendorf tube) and allowed to stand at room temperature for overnight. Calf thymus DNA (5 mM, 1 μl) was added thereto and heated at 90° C. for 5 minutes. DNA was collected by ethanol precipitation. […]

SMILES: COC(=O)c1c(C)[nH]c2c1C13CC1CN(C(=O)/C=C/c1cc(NC(=O)c4cc(NC(C)=O)cn4C)cn1C)C3=CC2=O (centres unmarked) [PyPyLDu86]
- pIC50 [1]: 8.82

SMILES: COC(=O)c1c(C)[nH]c2c1C13CC1CN(C(=O)/C=C/c1cc(NC(=O)c4nc(NC(C)=O)cn4C)cn1C)C3=CC2=O (centres unmarked) [ImPyLDu86]
- pIC50 [1]: 9.15
- efficiency of cleavage ([2]; double-strand DNA cleavage, calculated by an amount of used ImPyLDu86): ~70%
- cleavage of the double-strand DNA (sites) ([2]; upper and lower strand, thermally induced strand cleavage, from the lower concentration): mainly cleaved at the site 1 and the site 2 of the two strands

SMILES: COC(=O)c1cc2c([nH]1)C(=O)C=C1N(C(=O)c3cc4cc(OC)c(OC)c(OC)c4[nH]3)C[C@H]3C[C@]123 [Duocaraycin, duocarmycin, reference compound]
- pIC50 [1]: 8.33
